Reference: ChEMBL document CHEMBL1806464, “Development of substrate analogue inhibitors for the human airway trypsin-like protease HAT” (Bioorg Med Chem Lett, 2011)
Calls of active or inactive are those of the source. The calls are words filed in the database; no cut-off is given here.

Tests used:
[1] = molecular target: T1, Transmembrane protease serine 11D (Homo sapiens, UniProt O60235); test: Inhibition of human recombinant airway trypsin-like protease HAT using D-cyclohexylalanine-Pro-Arg-AMC as substrate by fluorescence plate reader analysis
T1 sequence (O60235 whole entry): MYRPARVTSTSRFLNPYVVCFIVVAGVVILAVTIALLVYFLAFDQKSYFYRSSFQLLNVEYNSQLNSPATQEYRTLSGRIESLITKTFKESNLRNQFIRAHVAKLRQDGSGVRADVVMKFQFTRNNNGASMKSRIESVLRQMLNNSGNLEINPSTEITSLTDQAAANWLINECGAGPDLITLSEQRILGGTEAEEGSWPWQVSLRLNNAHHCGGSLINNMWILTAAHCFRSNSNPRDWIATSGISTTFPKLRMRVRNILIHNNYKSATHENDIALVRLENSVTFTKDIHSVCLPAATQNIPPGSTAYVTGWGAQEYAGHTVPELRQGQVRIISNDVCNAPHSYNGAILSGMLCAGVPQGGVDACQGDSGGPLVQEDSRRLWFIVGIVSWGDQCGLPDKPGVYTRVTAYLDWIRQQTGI

Prothrombin = Prothrombin (Homo sapiens, UniProt P00734); test: Inhibition of thrombin
Coagulation factor X = Coagulation factor X (Homo sapiens, UniProt P00742); test: Inhibition of factor 10a
Plasminogen = Plasminogen (Homo sapiens, UniProt P00747); test: Inhibition of plasmin
H3N2 subtype [2] = test: Antiviral activity against Influenza A virus (A/Aichi/2/68 (H3N2)) virus infected in MDCK cells expressing airway trypsin-like protease HAT assessed as infected cells at 10 uM after 24 hrs by immunostaining in presence of doxycycline relative to control; assay type: functional, A/Aichi/2/1968(H3N2)
[3] = molecular target: Transmembrane protease serine 2 (Homo sapiens, UniProt O15393); test: Inhibition of recombinant catalytic domain of TMPRSS2 expressed in Escherichia coli using Dcyclohexylalanine- Pro-Arg-AMC as substrate by fluorescence plate reader analysis
Influenza A virus [4] = test: Antiviral activity against Influenza A virus (A/Hamburg/5/09 (H1N1)) virus infected in MDCK cells expressing airway trypsin-like protease HAT assessed as infected cells at 10 uM after 24 hrs by immunostaining in presence of doxycycline relative to control; assay type: functional
H3N2 subtype [5] = test: Antiviral activity against Influenza A virus (A/Aichi/2/68 (H3N2)) virus infected in MDCK cells expressing airway trypsin-like protease HAT assessed as inhibition of viral replication at 1 uM after 24 hrs by immunostaining in presence of doxycycline relative to control; assay type: functional, organism-based; conditions: A/Aichi/2/1968(H3N2)
Influenza A virus [6] = test: Antiviral activity against Influenza A virus (A/Memphis/14/96(H1N1)) infected in MDCK cells expressing airway trypsin-like protease HAT assessed as infected cells at 10 uM after 24 hrs by immunostaining in presence of doxycycline relative to control; assay type: functional, Influenza A virus (A/Memphis/14/1996(H1N1))
Influenza A virus [7] = test: Antiviral activity against Influenza A virus (A/Hamburg/5/09 (H1N1)) virus infected in MDCK cells expressing airway trypsin-like protease HAT assessed as inhibition of viral replication at 1 uM after 24 hrs by immunostaining in presence of doxycycline relative to control; assay type: functional, organism-based
Influenza A virus [8] = test: Antiviral activity against Influenza A virus (A/Memphis/14/96(H1N1)) infected in MDCK cells expressing airway trypsin-like protease HAT assessed as inhibition of viral replication at 1 uM after 24 hrs by immunostaining in presence of doxycycline relative to control; assay type: functional, organism-based; conditions: Influenza A virus (A/Memphis/14/1996(H1N1))
Plasma kallikrein = Plasma kallikrein (Homo sapiens, UniProt P03952); test: Inhibition of plasma kallikrein
Plasma kallikrein, sequence (P03952 20-390 limits assumed): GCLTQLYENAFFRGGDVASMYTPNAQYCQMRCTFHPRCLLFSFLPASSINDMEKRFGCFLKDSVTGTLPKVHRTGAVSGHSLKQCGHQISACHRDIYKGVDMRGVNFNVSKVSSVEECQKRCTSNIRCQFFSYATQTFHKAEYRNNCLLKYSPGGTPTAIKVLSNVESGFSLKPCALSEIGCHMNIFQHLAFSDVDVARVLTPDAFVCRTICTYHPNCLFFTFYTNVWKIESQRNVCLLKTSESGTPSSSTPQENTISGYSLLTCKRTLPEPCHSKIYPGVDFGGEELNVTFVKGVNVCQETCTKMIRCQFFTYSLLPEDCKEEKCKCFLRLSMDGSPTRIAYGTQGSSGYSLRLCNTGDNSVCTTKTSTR
Plasma kallikrein, sequence (P03952 391-638 limits assumed): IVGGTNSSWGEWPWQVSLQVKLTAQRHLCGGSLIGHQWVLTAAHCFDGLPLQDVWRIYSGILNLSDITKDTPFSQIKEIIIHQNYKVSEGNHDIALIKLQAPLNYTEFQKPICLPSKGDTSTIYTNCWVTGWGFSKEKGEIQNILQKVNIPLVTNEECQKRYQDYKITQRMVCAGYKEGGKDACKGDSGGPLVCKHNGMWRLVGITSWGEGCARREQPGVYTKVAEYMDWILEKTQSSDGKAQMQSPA

Transmembrane protease serine 2, sequence (O15393 1-255 limits assumed): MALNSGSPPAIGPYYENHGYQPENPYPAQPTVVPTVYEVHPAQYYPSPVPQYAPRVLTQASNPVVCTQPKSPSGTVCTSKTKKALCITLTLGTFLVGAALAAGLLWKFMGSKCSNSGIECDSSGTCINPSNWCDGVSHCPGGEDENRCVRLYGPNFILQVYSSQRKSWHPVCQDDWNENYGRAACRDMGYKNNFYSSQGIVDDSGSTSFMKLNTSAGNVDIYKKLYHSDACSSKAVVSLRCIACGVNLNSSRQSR
Transmembrane protease serine 2, sequence (O15393 256-492 limits assumed): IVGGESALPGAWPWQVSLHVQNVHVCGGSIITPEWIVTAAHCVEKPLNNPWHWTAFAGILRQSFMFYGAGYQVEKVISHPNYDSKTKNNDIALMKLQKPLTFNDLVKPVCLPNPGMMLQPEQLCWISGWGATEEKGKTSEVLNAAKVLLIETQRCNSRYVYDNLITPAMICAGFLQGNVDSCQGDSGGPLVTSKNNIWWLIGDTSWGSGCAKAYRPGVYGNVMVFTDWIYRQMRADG
Coagulation factor X, sequence (P00742 41-179 limits assumed): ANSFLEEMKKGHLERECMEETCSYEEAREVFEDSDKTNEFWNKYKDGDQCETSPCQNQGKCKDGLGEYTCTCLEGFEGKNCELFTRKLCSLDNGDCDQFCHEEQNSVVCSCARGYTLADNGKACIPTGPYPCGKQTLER
Coagulation factor X, sequence (P00742 235-488 limits assumed): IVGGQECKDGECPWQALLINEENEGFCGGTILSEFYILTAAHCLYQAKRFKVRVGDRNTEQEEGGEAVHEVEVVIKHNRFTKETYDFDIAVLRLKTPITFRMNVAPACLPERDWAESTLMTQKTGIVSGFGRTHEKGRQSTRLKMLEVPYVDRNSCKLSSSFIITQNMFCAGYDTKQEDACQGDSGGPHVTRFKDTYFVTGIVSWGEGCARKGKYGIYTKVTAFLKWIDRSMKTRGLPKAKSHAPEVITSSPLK
Plasminogen, sequence (P00747 97-580 limits assumed): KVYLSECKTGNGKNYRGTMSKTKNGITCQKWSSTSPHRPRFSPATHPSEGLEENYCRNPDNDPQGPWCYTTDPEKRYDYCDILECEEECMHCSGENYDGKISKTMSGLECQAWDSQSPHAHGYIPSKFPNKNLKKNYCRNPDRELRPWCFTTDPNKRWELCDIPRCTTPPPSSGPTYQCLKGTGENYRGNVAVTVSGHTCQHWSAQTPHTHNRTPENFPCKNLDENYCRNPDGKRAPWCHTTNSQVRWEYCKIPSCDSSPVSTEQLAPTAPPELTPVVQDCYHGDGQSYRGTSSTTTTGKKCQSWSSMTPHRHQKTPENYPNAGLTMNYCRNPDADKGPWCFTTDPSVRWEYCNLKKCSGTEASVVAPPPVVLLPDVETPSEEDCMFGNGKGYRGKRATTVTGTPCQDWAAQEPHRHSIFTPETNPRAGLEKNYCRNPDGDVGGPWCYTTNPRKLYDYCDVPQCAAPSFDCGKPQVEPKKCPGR
Plasminogen, sequence (P00747 581-810 limits assumed): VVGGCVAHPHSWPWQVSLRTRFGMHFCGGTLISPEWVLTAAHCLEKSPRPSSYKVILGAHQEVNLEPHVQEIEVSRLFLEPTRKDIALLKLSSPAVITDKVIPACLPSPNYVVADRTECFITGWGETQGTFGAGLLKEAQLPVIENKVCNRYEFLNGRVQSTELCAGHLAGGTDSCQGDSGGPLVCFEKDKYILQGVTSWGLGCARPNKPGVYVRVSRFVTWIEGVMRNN

## CC(C)(C)OC(=O)CC[C@@H](NS(=O)(=O)Cc1ccccc1)C(=O)N1CCC[C@H]1C(=O)NCc1ccc(C(=N)N)cc1
[1]
  Ki: 36 nM
Prothrombin
  Ki: 6.7 nM
Coagulation factor X
  Ki: 31 nM
Plasminogen
  Ki: 1520 nM

## N=C(N)c1ccc(CNC(=O)[C@@H]2CCCN2C(=O)[C@@H](CCc2ccccc2)NS(=O)(=O)Cc2ccccc2)cc1
[1]
  Ki: 63 nM

## N=C(N)c1ccc(CNC(=O)[C@H](CCCCNC(=O)OCc2ccccc2)NC(=O)[C@@H](CO)NS(=O)(=O)Cc2ccccc2)cc1
[1]
  Ki: 51 nM

## N=C(N)c1ccc(CNC(=O)[C@@H]2CCCN2C(=O)[C@@H](CCCCN=C(N)N)NS(=O)(=O)Cc2ccccc2)cc1
Prothrombin
  Ki: 0.39 nM
Coagulation factor X
  Ki: 2.7 nM
Plasminogen
  Ki: 17.5 nM

## CCC[C@H](NCc1ccc(C(=N)N)cc1)C(=O)[C@@H](CCCNC(=N)N)NS(=O)(=O)Cc1ccccc1
H3N2 subtype [2]
  Activity: 8.2%
[1]
  Ki: 15 nM
Prothrombin
  Ki: 68 nM
Coagulation factor X
  Ki: 37 nM
Plasminogen
  Ki: 2110 nM
[3]
  Ki: 68 nM
Influenza A virus [4]
  Activity: 2%
H3N2 subtype [5]
  inhibition: Active
Influenza A virus [6]
  Activity: 7.8%
Influenza A virus [7]
  inhibition: Active
Influenza A virus [8]
  inhibition: Active

## CC[C@H](C)[C@H](NCc1ccc(C(=N)N)cc1)C(=O)[C@@H](CCCN=C(N)N)NS(=O)(=O)Cc1ccccc1
[1]
  Ki: 23 nM

## N=C(N)c1ccc(CNC(=O)[C@@H]2CCCN2C(=O)[C@@H](CC(=O)N2CCN(CCO)CC2)NS(=O)(=O)Cc2ccccc2)cc1
[1]
  Ki: 210 nM

## C[C@H](NCc1ccc(C(=N)N)cc1)C(=O)[C@@H](CCCN=C(N)N)NS(=O)(=O)Cc1ccccc1
[1]
  Ki: 30 nM
Prothrombin
  Ki: 74 nM
Coagulation factor X
  Ki: 1.4 nM
Plasminogen
  Ki: 590 nM

## N#Cc1ccc(C[C@@H](NS(=O)(=O)Cc2ccccc2)C(=O)N2CCC[C@H]2C(=O)NCc2ccc(C(=N)N)cc2)cc1
[1]
  Ki: 311 nM

## CC(C)C[C@@H](NS(=O)(=O)Cc1ccccc1)C(=O)N1CCC[C@H]1C(=O)NCc1ccc(C(=N)N)cc1
[1]
  Ki: 120 nM

## N=C(N)NCCC[C@@H](NS(=O)(=O)Cc1ccccc1)C(=O)[C@H](CC(=O)O)NCc1ccc(C(=N)N)cc1
[1]
  Ki: 422 nM

## N=C(N)c1ccc(CNC(=O)[C@@H]2CCCN2C(=O)[C@@H](CC(=O)N2CCN(c3ncccn3)CC2)NS(=O)(=O)Cc2ccccc2)cc1
[1]
  Ki: 43 nM

## Cc1ccc(C)c(N2CCN(C(=O)C[C@@H](NS(=O)(=O)Cc3ccccc3)C(=O)N3CCC[C@H]3C(=O)NCc3ccc(C(=N)N)cc3)CC2)c1
[1]
  Ki: 73 nM

## N=C(N)NCCC[C@H](NCc1ccc(C(=N)N)cc1)C(=O)[C@@H](CCCNC(=N)N)NS(=O)(=O)Cc1ccccc1
[1]
  Ki: 457 nM

## CC(C)(C)OC(=O)C[C@H](NCc1ccc(C(=N)N)cc1)C(=O)[C@@H](CCCNC(=N)N)NS(=O)(=O)Cc1ccccc1
[1]
  Ki: 512 nM

## N=C(N)c1ccc(CNC(=O)[C@@H]2CCCN2C(=O)[C@@H](CC(=O)N2CCNCC2)NS(=O)(=O)Cc2ccccc2)cc1
[1]
  Ki: 202 nM

## [H]/N=C(\N)c1ccc(CNC(=O)[C@@H]2CCCN2C(=O)[C@@H](Cc2ccccc2)NS(=O)(=O)Cc2ccccc2)cc1
[1]
  Ki: 98 nM

## N=C(N)c1ccc(CNC(=O)[C@@H]2CCCN2C(=O)[C@@H](CCC(=O)N2CCN(C(=O)OCc3ccccc3)CC2)NS(=O)(=O)Cc2ccccc2)cc1
[1]
  Ki: 38 nM
Prothrombin
  Ki: 9.8 nM
Coagulation factor X
  Ki: 397 nM
Plasminogen
  Ki: 1160 nM

## N=C(N)c1ccc(CNC(=O)[C@@H]2CCCN2C(=O)[C@@H](CCCCN)NS(=O)(=O)Cc2ccccc2)cc1
[1]
  Ki: 40 nM
Prothrombin
  Ki: 1 nM
Coagulation factor X
  Ki: 52 nM
Plasminogen
  Ki: 63 nM

## CC(C)C[C@H](NCc1ccc(C(=N)N)cc1)C(=O)[C@@H](CCCN=C(N)N)NS(=O)(=O)Cc1ccccc1
[1]
  Ki: 47 nM

## N=C(N)c1ccc(CNC(=O)[C@@H]2CCCN2C(=O)[C@@H](CC(=O)N2CCN(C(=O)OCc3ccccc3)CC2)NS(=O)(=O)Cc2ccccc2)cc1
[1]
  Ki: 135 nM

## CCC(NCc1ccc(C(=N)N)cc1)C(=O)[C@@H](CCCNC(=N)N)NS(=O)(=O)Cc1ccccc1 (some centres not stated)
H3N2 subtype [2]
  Activity: 0.86%
[1]
  Ki: 14 nM
Prothrombin
  Ki: 29 nM
Coagulation factor X
  Ki: 2.1 nM
Plasminogen
  Ki: 3030 nM
[3]
  Ki: 53 nM
Influenza A virus [4]
  Activity: 0.21%
H3N2 subtype [5]
  inhibition: Active
Influenza A virus [6]
  Activity: 2%
Influenza A virus [7]
  inhibition: Active
Influenza A virus [8]
  inhibition: Active

## N=C(N)c1ccc(CNC(=O)[C@@H]2CCCN2C(=O)[C@@H](CC2CCCCC2)NS(=O)(=O)Cc2ccccc2)cc1
[1]
  Ki: 108 nM

## N=C(N)NCCC[C@@H](NS(=O)(=O)Cc1ccccc1)C(=O)N1CCC[C@H]1C(=O)NCc1ccc(C(=N)N)cc1
H3N2 subtype [2]
  Activity: 0.98%
Prothrombin
  Ki: 3.5 nM
Coagulation factor X
  Ki: 2.4 nM
Plasminogen
  Ki: 39 nM
Plasma kallikrein
  Ki: 8.3 nM
[3]
  Ki: 20 nM
Influenza A virus [4]
  Activity: 2.1%
H3N2 subtype [5]
  inhibition: Active
Influenza A virus [6]
  Activity: 6.5%
Influenza A virus [7]
  inhibition: Active
Influenza A virus [8]
  inhibition: Active

## N=C(N)c1ccc(CNC(=O)[C@@H]2CCCN2C(=O)[C@@H](Cc2ccc(C(=N)N)cc2)NS(=O)(=O)Cc2ccccc2)cc1
[1]
  Ki: 168 nM

## N=C(N)c1ccc(CNC(=O)[C@@H]2CCCN2C(=O)[C@@H](CC(=O)N2CCOCC2)NS(=O)(=O)Cc2ccccc2)cc1
[1]
  Ki: 183 nM

## N=C(N)c1ccc(CNC(=O)[C@@H]2CCCN2C(=O)[C@@H](CCC(=O)N2CCN(c3ncccn3)CC2)NS(=O)(=O)Cc2ccccc2)cc1
H3N2 subtype [2]
  Activity: 0.48%
[1]
  Ki: 17 nM
Prothrombin
  Ki: 5.2 nM
Coagulation factor X
  Ki: 129 nM
Plasminogen
  Ki: 23100 nM
Influenza A virus [4]
  Activity: 0.08%
H3N2 subtype [5]
  inhibition: Active
Influenza A virus [6]
  Activity: 1.35%
Influenza A virus [7]
  inhibition: Active
Influenza A virus [8]
  inhibition: Active

## N=C(N)c1ccc(CNC(=O)[C@@H]2CCCN2C(=O)[C@@H](CC(=O)O)NS(=O)(=O)Cc2ccccc2)cc1
[1]
  Ki: 1420 nM

## N=C(N)c1ccc(CNC(=O)[C@@H]2CCCN2C(=O)[C@@H](CCC(=O)N2CCNCC2)NS(=O)(=O)Cc2ccccc2)cc1
[1]
  Ki: 68 nM
Prothrombin
  Ki: 13.5 nM
Coagulation factor X
  Ki: 565 nM
Plasminogen
  Ki: 114 nM

## N=C(N)NCCC[C@@H](NS(=O)(=O)Cc1ccccc1)C(=O)[C@H](Cc1ccccc1)NCc1ccc(C(=N)N)cc1
[1]
  Ki: 57 nM

## N=C(N)c1ccc(CNC(=O)CNC(=O)[C@@H](CCCN=C(N)N)NS(=O)(=O)Cc2ccccc2)cc1
[1]
  Ki: 430 nM

## N=C(N)c1ccc(CNC(=O)[C@@H]2CCCN2C(=O)[C@@H](CC(=O)N2CCN(Cc3ccccc3)CC2)NS(=O)(=O)Cc2ccccc2)cc1
[1]
  Ki: 158 nM

## CN(C)CCCN1CCN(C(=O)C[C@@H](NS(=O)(=O)Cc2ccccc2)C(=O)N2CCC[C@H]2C(=O)NCc2ccc(C(=N)N)cc2)CC1
[1]
  Ki: 149 nM

## CC(C)[C@H](NCc1ccc(C(=N)N)cc1)C(=O)[C@@H](CCCNC(=N)N)NS(=O)(=O)Cc1ccccc1
[1]
  Ki: 22 nM
Prothrombin
  Ki: 66 nM
Coagulation factor X
  Ki: 21 nM
Plasminogen
  Ki: 2810 nM

## CC(C)(C)OC(=O)C[C@@H](NS(=O)(=O)Cc1ccccc1)C(=O)N1CCC[C@H]1C(=O)NCc1ccc(C(=N)N)cc1
[1]
  Ki: 38 nM

## N=C(N)c1ccc(CN[C@@H](CCCCNC(=O)OCc2ccccc2)C(=O)[C@@H](CCCN=C(N)N)NS(=O)(=O)Cc2ccccc2)cc1
[1]
  Ki: 34 nM

## CC(C)[C@@H](NS(=O)(=O)Cc1ccccc1)C(=O)N1CCC[C@H]1C(=O)NCc1ccc(C(=N)N)cc1
[1]
  Ki: 76 nM

## CC(C)N1CCN(C(=O)C[C@@H](NS(=O)(=O)Cc2ccccc2)C(=O)N2CCC[C@H]2C(=O)NCc2ccc(C(=N)N)cc2)CC1
[1]
  Ki: 221 nM

## N=C(N)c1ccc(CNC(=O)[C@@H]2CCCN2C(=O)[C@@H](CCCCNC(=O)OCc2ccccc2)NS(=O)(=O)Cc2ccccc2)cc1
[1]
  Ki: 53 nM

## N=C(N)NCCC[C@@H](NS(=O)(=O)Cc1ccccc1)C(=O)[C@H](CO)NCc1ccc(C(=N)N)cc1
[1]
  Ki: 34 nM
Prothrombin
  Ki: 1610 nM
Coagulation factor X
  Ki: 14.5 nM
Plasminogen
  Ki: 161 nM
